# Legend:
# [1] = tested on: SUR1; assay: Gliotic capsule model with ODN infusion: SUR1 Western blot and astrocyte patch clamp; type: in vivo, rat
# Experimental: To validate the antisense strategy, it was first implemented in the model that was originally used for the discovery of the NCCa-ATP channel, wherein a gelatin sponge is implanted into the parietal lobe to stimulate formation of a gliotic capsule (Chen and Simard, 2001). Here, animals were also fitted with mini-osmotic pumps that delivered oligodeoxynucleotides (ODN), either antisense (AS) or scrambled (Scr), continuously for 7 d into the injury site.
# SUR1 knock-down in astrocytes was performed in triplicates by implanting rats with gelatin sponges in the parietal lobe to induce formation of a gliotic capsule containing reactive astrocytes that express the SUR1-regulated NCCa-ATP channel (Chen and Simard, 2001; Chen et al., 2003). At the same time, they were implanted with mini-osmotic pumps (Alzet, model 2002; 14-day pump) placed in the dorsal thoracolumbar region that contained ODN (711 μg/ml delivered @ 0.5 μl/h, yielding 1500 picomoles/day), with the delivery catheter placed directly into the site of the gelatin sponge implant in the brain. Animals were infused with Src-ODN or AS-ODN, as above but not phosphorothioated. After 10-14 days, the gelatin sponge plus encapsulating gliotic tissues were harvested and processed either for Western immunoblots or to obtain fresh reactive astrocytes for patch clamp electrophysiology. […]
# [2] = tested on: rats with spinal cord injury (SCI); assay: Rat cervical SCI model: neurobehavioral assessment (inclined plane, paw placement, rearing); type: in vivo
# Experimental: (§1) SCI injury model. This study was performed in accordance with the guidelines of the Institutional Animal Care and Use Committee. Adult female Long-Evans rats (275-350 gm) were anesthetized (Ketamine, 60 mg/kg plus Xylazine, 7.5 mg/kg, i.p.). The dura at C4-5 was exposed via a left hemilaminectomy. A hemi-cervical spinal cord contusion was created using a blunt force impactor (1.3-mm impactor head driven by a 10 gm weight dropped vertically 25 mm) (Soblo sky et al., 2001; Gensel et al., 2006). After SCI, animals were given 10 ml of glucose-free normal saline s.q. Rectal temperature was maintained at ˜37° C. using a servo-controlled warming blanket.
# For in vivo gene suppression of SUR1, we used oligodeoxynucleotides that were phosphorothioated at 4 distal bonds to protect against endogenous nucleases (35).
# Neurobehavioral assessment. All measurements were performed by blinded evaluators. Performance on the inclined plane was evaluated as described (Rivlin and Tator, 1977). To assess paw placement and vertical exploration (rearing) (Nikulina et al., 2004) animals were videotaped while in a translucent cylinder (19×20 cm). Rearing was quantified as the number of seconds spent with both front paws elevated above shoulder-height during a 3-min period of observation.
# [3] = tested on: rats with spinal cord injury (SCI); assay: Rat cervical SCI model: hemorrhage / extravasated blood in cord; type: in vivo; details: 1 d post-SCI
# Experimental: Constant infusion of a low-dose of drug was used to achieve sustained occupancy of only high-affinity receptors.
# as §1, with “blanket. Blood gases and serum glucose 10-15 min post-SCI were: pO2, 95±6 mm Hg; pCO2, 46±3 mm Hg; pH, 7.33±0.01; glucose 258±17 mg/dl in controls and pO2, 96±7 mm Hg; pCO2, 45±2 mm Hg; pH, 7.37±0.01; glucose 242±14 mg/dl in glibenclamide-treated animals.” for “blanket.”
# (§2) Drug delivery. […] During the course of the project, slightly different formulations of drug were used, with the best results obtained using stock solutions made by placing 50 mg (or 25 mg) of drug into 10 ml DMSO, and infusion solutions made by placing 400 μl (or 800 μl) stock into 4.6 ml (or 4.2 ml) unbuffered saline (0.9% NaCl) and adjusting the pH to ˜8.5 using 0.1 N NaOH.
# (§3) For in vivo gene suppression of SUR1, we used oligodeoxynucleotides that were phosphorothioated at 4 distal bonds to protect against endogenous nucleases (35). Within a few min of SCI, mini-osmotic pumps (Alzet 2002, 0.5 μl/h; Durect Corporation) with jugular vein catheters were implanted that delivered either scrambled sequence ODN (Scr-ODN) (5′-[…]-3′; SEQ ID NO:1) or antisense ODN (AS-ODN) (5′-[…]-3′; SEQ ID NO:2) (Yokoshiki et al., 1999) in PBS at a rate of 1 mg/rat/24 h.
# Tissue blood. Rats were sacrificed at various times after SCI (n=5-11 rats/group), were perfused with heparinized saline to remove intravascular blood, and 5-mm segments of cord encompassing the lesion were homogenized and processed as described (Choudhri et al., 1997).
# [4] = tested on: rats with spinal cord injury (SCI); assay: Rat cervical SCI model: histology, capillaries and lesion size; type: in vivo; details: 7 d post-SCI
# Experimental: as §1, with “blanket. Blood gases and serum glucose 10-15 min post-SCI were: pO2, 95±6 mm Hg; pCO2, 46±3 mm Hg; pH, 7.33±0.01; glucose 258±17 mg/dl in controls and pO2, 96±7 mm Hg; pCO2, 45±2 mm Hg; pH, 7.37±0.01; glucose 242±14 mg/dl in glibenclamide-treated animals.” for “blanket.”
# as §2
# Lesion size. At 7 d post-SCI, cords were paraffin sectioned and stained with H&E. Lesion volumes were calculated from lesion areas measured on serial sections every 250 μm.
# Immunohistochemistry. Cryosections were immunolabeled (Chen et al., 2003; Simard et al., 2006) using primary antibodies directed against SUR1 (Santa Cruz, C-16; 1:200; 1 h at RT, 48 h at 4° C.), SUR2 (Santa Cruz, H-80; 1:200; 1 h at RT, 48 h at 4° C.), GFAP (Sigma, C-9205; 1:500), and vimentin (Sigma, monoclonal CY3 conjugated; 1:100). Quantitative immunofluorescence was performed as described (Gerzanich et al., 2003).
# [5] = tested on: SUR1; assay: SCI with i.v. ODN: SUR1 immunolabeling of cord; type: in vivo, rat
# Description: For studies with SCI, AS-ODN and Scr-ODN were used that were phosphorothioated at 4 distal bonds to protect against endogenous nucleases (Galderisi et al., 1999), with ODN's administered i.v. starting immediately after injury. […] With Scr-ODN, the necrotic void beneath the impact site was surrounded by an SUR1-positive shell of tissue, similar to observations in untreated animals (FIG. 1a). With AS-ODN, however, only the small volume of tissue immediately beneath the impact site was labeled for SUR1, and no necrotic void was evident (FIG. 5c).
# as §3
# Immunohistochemistry. […] Quantitative immunofluorescence was performed as described (Gerzanich et al., 2003).
# [6] = target: SUR1-regulated NCCa-ATP channels (Rattus norvegicus, UniProt Q09429); details: read-out: EC50, block of SUR1-regulated NCCa-ATP channel; cited from earlier work
# [7] = target: T1, SUR-regulated channels (KATP / NCCa-ATP) in human aortic endothelial cells (Homo sapiens, UniProt Q09428); assay: Nystatin-perforated patch clamp, diazoxide activation in endothelial cells cultured under normoxic or hypoxic conditions; type: cell-based; details: most endothelial cells cultured under hypoxic conditions
# T1 construct: host or cells: human aortic endothelial cells, cultured under normoxic or hypoxic conditions
# Experimental: (§4) Patch clamp of endothelial cells was performed using a nystatin-perforated patch technique, to maintain the metabolic integrity of the cells. The identity of the activated channel can be assessed by measurement of the “reversal potential”, the potential at which an ion channel current reverses from inward to outward. With physiologically relevant concentrations of ions intracellularly and extracellularly (high potassium inside, high sodium outside), the reversal potential can unambiguously distinguish between a K^+ channel current such as KATP, which reverses negative to −50 mV and a non-selective cation channel current such as NCCa-ATP, which reverses near 0 mV.
# (§5) Cell culture. Endothelial cell cultures from human brain microvessels, human aorta (ScienCell Research Laboratories), and murine brain microvessels (bEnd.3; ATCC), were grown at low density using media and supplements recommended by suppliers.
# [8] = tested on: SUR-regulated channels (KATP / NCCa-ATP) in human aortic endothelial cells; assay: as above; type: cell-based; details: endothelial cells cultured under normoxic conditions
# Experimental: as §4, §5
# [9] = target: native and recombinant β-cell KATP channels (Homo sapiens, UniProt Q09428); details: read-out: IC50, block of β-cell KATP channels; cited from earlier work
# [10] = tested on: Abcc8 mRNA and SUR1 protein in bEnd.3 cells; assay: TNFα exposure of bEnd.3 cells: RT-PCR and immunoblot for Abcc8 / SUR1; type: cell-based, murine; details: 6-hr exposure, 20 ng/ml
# Experimental: Immunoblot. Lysates of inferomedial cortex, or of cultured bEnd.3 cells (ATCC, Monassas, Va.) that had been exposed to TNFα (20 ng/ml) for 6 hr, were prepared by homogenizing in RIPA lysis buffer. SUR1 was immunoisolated using a custom antibody raised against amino acids 598-965 (Protein Id, NP_037171) in rabbits by a commercial service (Covance, Denver, Pa.). This custom antibody was used to immunoisolate SUR1 using standard techniques, following which immunoisolated SUR1 was run on electrophoretic gels (NuPAGE® 4-12% Bis-Tris gels; Novex, Invitrogen, Carlsbad, Calif.). SUR1 was detected using the same custom antibody. Membranes were stripped and re-blotted for β-actin (1:5000; Sigma), which was used as a loading control. Detection was carried out using the ECL system (Amersham BioTBIences, Inc.) with routine imaging (Fuji LAS-3000) and quantification (Scion Image, Scion Corp, Frederick, Md.).
# RT-PCR. bEnd.3 cells were exposed to TNFα (20 ng/ml) for 6 hr. RNA was extracted with TRIzol reagent (Invitrogen). RT-PCR was performed using Reverse Transcription System (Promega). The target transcript was reverse transcribed at RT for 10 min, then incubated at 42° C. for 15 min. The cDNA was amplified using 35 cycles under the following conditions: 94° C. for 30 sec; 57° C. for 45 sec; 72° C. for 45 sec. […] RT-PCR products (449 bp) were analyzed using 2.0% agarose/EtBr gel electrophoresis.
# [11] = tested on: rAbcc8 promoter / NFκB consensus sequences; assay: Luciferase reporter assay in HeLa cells; type: cell-based; details: 20 ng/ml
# Experimental: Luciferase reporter assay. TNFα-stimulated activity of the promoter region of Abcc8 was determined using luciferase reporter plasmids as previously described. HeLa cells were transfected with luciferase reporter plasmids containing the rAbcc8 promoter (−3853 to +125) or four tandem NFκB consensus sequences (Clonetech, Mountain View, Calif.) using Lipofectamine-2000 (Invitrogen). Co-transfection of pRL-CMV, Renilla luciferase expression plasmid served as a control for transfection efficiency. The luciferase activity of cell extracts was determined using the Dual Luciferase system from Promega.
# [12] = 1 d post-SCI, ODN i.v., vs Scr-ODN
# SUR1-regulated NCCa-ATP channels, sequence (Q09429 whole entry): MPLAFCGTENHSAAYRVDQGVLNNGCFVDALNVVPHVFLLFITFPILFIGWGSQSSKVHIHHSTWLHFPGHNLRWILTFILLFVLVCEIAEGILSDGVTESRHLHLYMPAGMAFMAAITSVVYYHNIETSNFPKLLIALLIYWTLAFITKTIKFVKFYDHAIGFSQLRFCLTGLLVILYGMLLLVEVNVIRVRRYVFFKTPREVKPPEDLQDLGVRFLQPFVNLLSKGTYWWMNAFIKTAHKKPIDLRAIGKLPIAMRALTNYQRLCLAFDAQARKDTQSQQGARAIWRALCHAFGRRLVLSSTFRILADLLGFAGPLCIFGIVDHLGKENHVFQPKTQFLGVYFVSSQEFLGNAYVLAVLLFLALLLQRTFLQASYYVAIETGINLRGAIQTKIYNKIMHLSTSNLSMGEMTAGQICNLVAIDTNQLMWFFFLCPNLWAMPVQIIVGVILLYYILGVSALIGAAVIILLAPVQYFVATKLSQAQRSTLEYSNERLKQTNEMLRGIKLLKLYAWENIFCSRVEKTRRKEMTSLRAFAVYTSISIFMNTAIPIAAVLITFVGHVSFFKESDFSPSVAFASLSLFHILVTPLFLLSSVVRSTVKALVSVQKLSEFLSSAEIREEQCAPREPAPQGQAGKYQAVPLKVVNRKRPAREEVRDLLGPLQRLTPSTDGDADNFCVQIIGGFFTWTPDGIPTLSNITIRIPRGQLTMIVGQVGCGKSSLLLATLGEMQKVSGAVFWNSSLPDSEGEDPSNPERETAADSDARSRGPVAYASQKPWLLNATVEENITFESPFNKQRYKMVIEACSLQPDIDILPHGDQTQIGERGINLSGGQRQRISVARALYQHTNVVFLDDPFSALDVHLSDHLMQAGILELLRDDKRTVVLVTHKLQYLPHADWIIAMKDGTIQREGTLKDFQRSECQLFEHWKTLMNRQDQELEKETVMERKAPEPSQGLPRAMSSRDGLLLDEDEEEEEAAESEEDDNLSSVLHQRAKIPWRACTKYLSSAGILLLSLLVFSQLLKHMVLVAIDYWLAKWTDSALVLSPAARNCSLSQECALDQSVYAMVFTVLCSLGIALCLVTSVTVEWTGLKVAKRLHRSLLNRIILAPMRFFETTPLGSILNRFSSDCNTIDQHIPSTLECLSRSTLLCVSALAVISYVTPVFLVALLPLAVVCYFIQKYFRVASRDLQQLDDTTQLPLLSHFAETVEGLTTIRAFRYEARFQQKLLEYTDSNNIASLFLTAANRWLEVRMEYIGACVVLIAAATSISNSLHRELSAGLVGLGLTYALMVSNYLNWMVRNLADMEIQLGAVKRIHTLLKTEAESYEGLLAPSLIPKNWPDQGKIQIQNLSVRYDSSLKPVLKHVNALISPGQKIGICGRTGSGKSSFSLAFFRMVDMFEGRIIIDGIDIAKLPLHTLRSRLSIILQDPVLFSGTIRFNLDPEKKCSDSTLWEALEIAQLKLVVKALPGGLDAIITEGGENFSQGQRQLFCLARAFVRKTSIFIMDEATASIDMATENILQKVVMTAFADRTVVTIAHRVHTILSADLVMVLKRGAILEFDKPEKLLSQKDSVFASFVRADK
# SUR1-regulated NCCa-ATP channels, sequence (Q9ESQ5 whole entry partner): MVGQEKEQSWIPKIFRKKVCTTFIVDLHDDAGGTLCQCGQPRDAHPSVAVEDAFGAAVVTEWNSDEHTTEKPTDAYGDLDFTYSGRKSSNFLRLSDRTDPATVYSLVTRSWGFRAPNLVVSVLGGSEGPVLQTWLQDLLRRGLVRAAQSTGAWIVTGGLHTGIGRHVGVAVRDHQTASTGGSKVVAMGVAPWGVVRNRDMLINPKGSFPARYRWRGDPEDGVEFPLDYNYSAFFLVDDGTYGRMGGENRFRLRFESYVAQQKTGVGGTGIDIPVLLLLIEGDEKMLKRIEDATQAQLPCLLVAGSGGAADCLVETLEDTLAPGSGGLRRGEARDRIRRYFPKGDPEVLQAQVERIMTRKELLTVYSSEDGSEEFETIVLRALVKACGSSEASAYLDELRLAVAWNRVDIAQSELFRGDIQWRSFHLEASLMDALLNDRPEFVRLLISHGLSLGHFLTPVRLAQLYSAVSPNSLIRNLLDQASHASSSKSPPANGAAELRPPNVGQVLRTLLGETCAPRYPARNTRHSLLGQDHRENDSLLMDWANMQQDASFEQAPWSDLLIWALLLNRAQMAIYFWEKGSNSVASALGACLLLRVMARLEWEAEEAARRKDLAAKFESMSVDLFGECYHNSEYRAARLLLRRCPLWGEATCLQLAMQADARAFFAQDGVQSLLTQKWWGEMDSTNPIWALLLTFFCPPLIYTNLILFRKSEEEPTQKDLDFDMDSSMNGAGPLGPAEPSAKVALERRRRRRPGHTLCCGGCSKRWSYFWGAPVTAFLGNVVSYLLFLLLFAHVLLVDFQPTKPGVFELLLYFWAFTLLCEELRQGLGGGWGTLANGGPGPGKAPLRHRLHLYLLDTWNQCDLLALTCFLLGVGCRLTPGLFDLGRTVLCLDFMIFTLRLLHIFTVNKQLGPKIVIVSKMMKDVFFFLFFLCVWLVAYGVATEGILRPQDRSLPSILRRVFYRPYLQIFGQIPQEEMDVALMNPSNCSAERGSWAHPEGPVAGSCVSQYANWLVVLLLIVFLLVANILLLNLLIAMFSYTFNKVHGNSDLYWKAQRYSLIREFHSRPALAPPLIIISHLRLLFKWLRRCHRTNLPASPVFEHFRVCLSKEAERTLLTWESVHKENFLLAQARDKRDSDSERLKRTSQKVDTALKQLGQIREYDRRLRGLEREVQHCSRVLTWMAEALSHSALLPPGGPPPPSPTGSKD
# native and recombinant β-cell KATP channels, sequence (Q09428 whole entry): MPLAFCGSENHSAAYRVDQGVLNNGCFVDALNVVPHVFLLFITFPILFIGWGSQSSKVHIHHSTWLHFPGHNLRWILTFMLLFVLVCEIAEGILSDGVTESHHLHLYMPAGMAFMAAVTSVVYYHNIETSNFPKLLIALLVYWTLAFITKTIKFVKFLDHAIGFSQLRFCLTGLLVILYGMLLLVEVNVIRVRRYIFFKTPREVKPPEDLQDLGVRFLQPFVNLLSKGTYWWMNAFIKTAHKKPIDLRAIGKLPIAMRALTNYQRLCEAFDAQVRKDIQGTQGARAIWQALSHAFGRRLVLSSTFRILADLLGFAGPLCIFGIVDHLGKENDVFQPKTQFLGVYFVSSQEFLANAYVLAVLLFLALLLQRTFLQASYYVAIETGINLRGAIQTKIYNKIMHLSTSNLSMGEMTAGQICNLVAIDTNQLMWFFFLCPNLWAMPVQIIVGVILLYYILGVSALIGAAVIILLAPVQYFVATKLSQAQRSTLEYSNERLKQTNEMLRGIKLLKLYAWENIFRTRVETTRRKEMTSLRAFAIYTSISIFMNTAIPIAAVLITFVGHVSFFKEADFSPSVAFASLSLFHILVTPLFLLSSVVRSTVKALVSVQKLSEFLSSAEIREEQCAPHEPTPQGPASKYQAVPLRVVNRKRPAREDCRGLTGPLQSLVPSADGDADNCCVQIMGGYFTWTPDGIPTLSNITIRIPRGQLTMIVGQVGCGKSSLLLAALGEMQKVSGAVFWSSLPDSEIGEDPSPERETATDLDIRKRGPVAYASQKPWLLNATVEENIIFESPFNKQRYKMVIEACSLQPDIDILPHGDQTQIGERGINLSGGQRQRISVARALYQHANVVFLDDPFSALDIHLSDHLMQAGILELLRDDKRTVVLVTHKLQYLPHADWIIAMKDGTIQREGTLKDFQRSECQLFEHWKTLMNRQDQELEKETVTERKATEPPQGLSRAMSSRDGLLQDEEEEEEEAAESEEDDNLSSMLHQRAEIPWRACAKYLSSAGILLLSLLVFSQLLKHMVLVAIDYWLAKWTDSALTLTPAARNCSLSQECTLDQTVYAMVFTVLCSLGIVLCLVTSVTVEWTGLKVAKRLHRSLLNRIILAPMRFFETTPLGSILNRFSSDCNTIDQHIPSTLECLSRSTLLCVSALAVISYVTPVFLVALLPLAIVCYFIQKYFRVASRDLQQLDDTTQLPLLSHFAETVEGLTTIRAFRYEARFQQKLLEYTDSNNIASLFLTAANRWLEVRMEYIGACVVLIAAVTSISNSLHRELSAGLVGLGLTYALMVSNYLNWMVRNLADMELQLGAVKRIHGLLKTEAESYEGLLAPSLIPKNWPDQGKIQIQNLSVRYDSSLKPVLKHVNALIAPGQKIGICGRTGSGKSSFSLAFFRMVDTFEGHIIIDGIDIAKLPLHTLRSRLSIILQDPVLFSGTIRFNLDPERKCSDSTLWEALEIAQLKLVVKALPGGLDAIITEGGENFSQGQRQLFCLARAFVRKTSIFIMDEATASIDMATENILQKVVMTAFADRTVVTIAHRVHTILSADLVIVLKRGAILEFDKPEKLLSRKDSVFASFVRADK
# native and recombinant β-cell KATP channels, sequence (Q14654 whole entry partner): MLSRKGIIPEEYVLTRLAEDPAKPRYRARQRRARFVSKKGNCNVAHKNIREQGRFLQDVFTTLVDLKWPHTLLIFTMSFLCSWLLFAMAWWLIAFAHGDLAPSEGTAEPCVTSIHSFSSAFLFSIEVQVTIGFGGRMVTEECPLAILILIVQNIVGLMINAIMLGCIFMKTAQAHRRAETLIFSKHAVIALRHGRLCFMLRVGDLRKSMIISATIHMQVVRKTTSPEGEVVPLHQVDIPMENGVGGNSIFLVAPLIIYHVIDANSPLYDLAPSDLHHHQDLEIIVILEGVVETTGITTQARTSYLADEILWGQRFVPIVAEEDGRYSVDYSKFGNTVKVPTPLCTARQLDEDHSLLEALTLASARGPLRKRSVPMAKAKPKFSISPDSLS
# T1 sequence (Q09428 whole entry): as the sequence (Q09428 whole entry) above
compound,measurement,setting,value
"5′-GGCCGAGTGGTTCTCGGT-3′ (DNA, backbone not given here; phosphorothioate at four distal bonds) [AS-ODN]",SUR1 protein in gliotic capsule (Western blot),"[1]; ODN infused into injury site, vs Scr-ODN",significant reduction in SUR1 protein
same,depolarization of gliotic capsule astrocytes on ATP depletion by Na azide,[1]; vs Scr-ODN (rapidly depolarized),depolarized only slightly or not at all
same,performance on inclined plane,[2]; [12],significantly better performance
same,vertical exploration,[2]; [12],significantly better performance
same,blood in cord homogenates,"[3]; ODN i.v., vs Scr-ODN",reduced blood in cord homogenates
same,"lesion volume, reduction compared to controls",[4],3 fold
same,immunolabeling for SUR1 in cord,"[5]; 6 h post-SCI, ODN i.v. 1 mg/rat/24 h, vs controls",significantly less immunolabeling for SUR1
same,normal expression of SUR1 in dorsal horn cells,"[5]; post-SCI, ODN i.v.",did not affect
Nc1ncnc2c1ncn2[C@@H]1O[C@H](COP(=O)(O)OP(=O)(O)OP(=O)(O)O)[C@@H](O)[C@H]1O [ATP],EC50,[6],790 nM
CC1=NS(=O)(=O)c2cc(Cl)ccc2N1 [diazoxide],whole-cell current response to diazoxide,[7],activated an ohmic current that reversed near 0 mV
same,whole-cell current response to diazoxide,[8],"either had no effect or, in half of the cells, activated an outwardly rectifying current that reversed at potentials more negative than −50 mV"
CCOc1cc(CC(=O)N[C@@H](CC(C)C)c2ccccc2N2CCCCC2)ccc1C(=O)O [repaglinide],"vertical exploration (rearing), time during 3-min observation","[2]; 1 d post-SCI, 200 ng/h s.q.",27 ± 6 s
same,"inclined plane, head down","[2]; post-SCI, vehicle 29±4, P=0.03",47±3 degrees
same,"inclined plane, head up","[2]; post-SCI, vehicle 40±4, P=0.01",62±2 degrees
same,blood in cord homogenates,"[3]; vehicle 1.8±0.2, P<0.01",1.2 ± 0.1 µL
same,IC50,[9],0.9 to 7 nM
same,"lesion volume, reduction compared to controls",[4],3 fold
TNFα,Abcc8 mRNA and SUR1 protein,[10],both increased
same,"activity of rAbcc8 promoter, increase",[11],~2 fold
same,"luciferase activity driven by NFκB binding sites, stimulation",[11],~2.3 fold

# From US20110263478A1, “SUR1 INHIBITORS FOR THERAPY” (priority 2008, published 2011)
